# Source: US20250163052A1, “cGAS INHIBITORS AND USES THEREOF” (Cornell University, priority 2022, published 2025)
# Legend:
# THP1 cells = assay: THP1-Dual cells, cell viability (CellTiter-Glo); format: cell-based
# Experimental: (§1) Evaluation of active cGAS inhibitors in THP1 cells (Table 3). Cellular activity of all compounds (in Table 3) was determined using THP1-Dual™ cells as described (Lama et. al., 2019). THP1-Dual™ cells (Invivogen) (50000 cells in 100 μl media) were seeded into each well of a 96-well plate and treated with compounds at various dilution for 4 hours. Subsequently, cells were transfected with DNA (2 ug/ml) and lipofectamine and incubate the cells were incubated overnight. Ifnb expression was measured in cell supernatant using Quantiluc, nfkb expression was determined using Quantiblue, and cell viability using Promega® CellTiter-Glo®.
# IFNB = assay: THP1-Dual cells transfected with DNA, Ifnb expression (Quantiluc); format: cell-based; conditions: Homo sapiens; for inhibition at 10 µM: THP-1, 10 μM; for inhibition at 30 µM: THP-1, 30 μM
# Experimental: as §1
# NFkB-SEAP = assay: THP1-Dual cells transfected with DNA, nfkb expression (Quantiblue); format: cell-based; conditions: Homo sapiens; for inhibition at 10 µM: THP-1, 10 μM; for inhibition at 30 µM: THP-1, 30 μM
# Experimental: as §1
# h-cGAS = h-cGAS (Homo sapiens, UniProt Q8N884); assay: Cell-free human cGAS enzyme inhibition assay (ATP depletion, Kinase-Glo Max); format: biochemical; conditions: 3 h; for inhibition at 10 µM: read-out: h-cGAS, conc. 10 μM; for inhibition at 1 µM: read-out: h-cGAS, conc. 1 μM
# Chain of h-cGAS (Q8N884 whole entry): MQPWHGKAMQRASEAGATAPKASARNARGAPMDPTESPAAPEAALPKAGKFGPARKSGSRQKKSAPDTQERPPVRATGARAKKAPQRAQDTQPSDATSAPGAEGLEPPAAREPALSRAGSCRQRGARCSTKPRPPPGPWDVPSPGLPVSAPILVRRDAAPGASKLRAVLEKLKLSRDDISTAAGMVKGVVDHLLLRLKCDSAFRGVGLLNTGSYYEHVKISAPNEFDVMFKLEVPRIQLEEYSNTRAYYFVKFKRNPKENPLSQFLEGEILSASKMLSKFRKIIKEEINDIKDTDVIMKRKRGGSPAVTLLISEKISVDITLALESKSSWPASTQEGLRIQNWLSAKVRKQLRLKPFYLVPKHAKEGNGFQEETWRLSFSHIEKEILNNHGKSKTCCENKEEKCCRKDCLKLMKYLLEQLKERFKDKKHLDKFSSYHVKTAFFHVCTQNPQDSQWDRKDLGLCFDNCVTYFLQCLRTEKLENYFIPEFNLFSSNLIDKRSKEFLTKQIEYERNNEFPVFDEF
# Experimental: (§2) Cell-free mouse and human cGAS enzyme inhibition assay (Table 2). Activity of all compounds (in Table 1) against m-cGAS (30 nM) and or h-cGAS, (100 nM) was determined by measuring the conversion of ATP and GTP (100 μM each) to cGAMP in the presence of dsDNA (5 ug/mL) in a reaction buffer composed of Tris-HCl (20 mM, pH7.4), NaCl (150 mM), MnCl2 (0.2 mM, h-cGAS) or MgCl2 (5 mM, m-cGAS) and Tween-20 (0.01%), and the remaining ATP concentration using Kinase-Glo®Max Luminescent Kinase Assay (Promega, Madison, WI), as described (Lama, et. al., 2019). Briefly, 10 μl of a master mix of 0.4 mM ATP, 0.4 mM GTP, 0.02 mg/mL dsDNA in the reaction buffer supplemented with 2 mM DTT was added to reaction wells containing TDI-6570 or TDI-8246 (2× of the desired concentration) in the same buffer ([…]) using a Thermo 8-channel Multidrop Combi dispenser. Next, 10 μl of a 4×m-cGAS (0.120 μM) or h-cGAS (0.4 μM) solution in the reaction buffer supplemented with 2 mM DTT was added to appropriate wells. Similar sets of reactions without cGAS or the inhibitor was set by adding the buffer alone. The reactions with the plates sealed were incubated at 37° C. (1 hour for m-cGAS and 3 hours for h-cGAS) and stopped by addition of 40 μl of the Kinase-Glo®Max. The luminescence was recorded in relative light units (RLUs) using a Biotek Synergy H1 Hybrid plate reader (BioTek, Winooski, VT). […] All reactions were run in triplicates and calculated using GraphPad Prism 9. The values represent mean IC50±S.D.
# m-cGAS = m-cGAS (Mus musculus, UniProt Q8C6L5); assay: Cell-free mouse cGAS enzyme inhibition assay (ATP depletion, Kinase-Glo Max); format: biochemical; conditions: 1 h; for inhibition at 10 µM: read-out: m-cGAS, conc. 10 μM; for inhibition at 1 µM: read-out: m-cGAS, conc. 1 μM
# Chain of m-cGAS (Q8C6L5 whole entry): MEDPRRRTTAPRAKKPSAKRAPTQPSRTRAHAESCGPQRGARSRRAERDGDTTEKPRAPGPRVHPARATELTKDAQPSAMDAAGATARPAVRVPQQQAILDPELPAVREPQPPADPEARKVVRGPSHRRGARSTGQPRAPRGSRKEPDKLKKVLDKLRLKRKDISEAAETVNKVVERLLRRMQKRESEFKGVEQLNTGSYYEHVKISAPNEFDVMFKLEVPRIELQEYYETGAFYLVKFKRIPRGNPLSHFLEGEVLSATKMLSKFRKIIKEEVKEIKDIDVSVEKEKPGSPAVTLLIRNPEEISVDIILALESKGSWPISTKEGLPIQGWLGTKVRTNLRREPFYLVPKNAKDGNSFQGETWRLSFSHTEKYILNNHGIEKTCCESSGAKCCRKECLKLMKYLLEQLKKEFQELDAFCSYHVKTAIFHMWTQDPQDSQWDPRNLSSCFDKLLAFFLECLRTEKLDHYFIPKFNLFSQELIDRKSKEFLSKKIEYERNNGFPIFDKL
# Experimental: as §2
Structure (SMILES),inhibition at 10 µM (h-cGAS),inhibition at 10 µM (m-cGAS),inhibition at 1 µM (h-cGAS),inhibition at 1 µM (m-cGAS),Cell viability 10 μM (THP1 cells),Cell viability 30 μM (THP1 cells),inhibition at 10 µM (IFNB),inhibition at 30 µM (IFNB),inhibition at 10 µM (NFkB-SEAP),inhibition at 30 µM (NFkB-SEAP)
NCC(=O)N1CCc2c(sc3c(Cl)c(Cl)cc(-n4ccnc4)c23)C1 [Compound 97],25 to 49%,50 to 74%,,,"+++ (+, ++, and +++ mean the compound respectively shows 25-49%; 50-74%; or 75-100% viability to cells)","+++ (+, ++, and +++ mean the compound respectively shows 25-49%; 50-74%; or 75-100% viability to cells)",50 to 74%,75 to 100%,25 to 49%,75 to 100%
Cn1cc(-c2cc(Cl)c(Cl)c3c2c2c(n3C)CCN(C(=O)CNC(=O)OC(C)(C)C)C2)cn1 [Compound 10],75 to 100%,0 to 24%,,,"+++ (+, ++, and +++ mean the compound respectively shows 25-49%; 50-74%; or 75-100% viability to cells)","+++ (+, ++, and +++ mean the compound respectively shows 25-49%; 50-74%; or 75-100% viability to cells)",< 24%,75 to 100%,< 24%,50 to 74%
O=C(CO)N1CCc2oc3c(Cl)c(Cl)cc(-c4cncnc4)c3c2C1 [Compound 25],50 to 74%,50 to 74%,25 to 49%,0 to 24%,"+++ (+, ++, and +++ mean the compound respectively shows 25-49%; 50-74%; or 75-100% viability to cells)",,,< 24%,< 24%,
NCC(=O)N1CCc2c(sc3c(Cl)c(Cl)cc(-c4ccccn4)c23)C1 [Compound 86],50 to 74%,25 to 49%,0 to 24%,0 to 24%,"+++ (+, ++, and +++ mean the compound respectively shows 25-49%; 50-74%; or 75-100% viability to cells)","− (Cell viability <24%, in THP1 cells is expressed as “−”)",< 24%,75 to 100%,< 24%,50 to 74%
O=C(CO)N1CCc2[nH]c3c(Cl)c(Cl)cc(O)c3c2C1 [Compound 3],75 to 100%,75 to 100%,50 to 74%,75 to 100%,"+++ (+, ++, and +++ mean the compound respectively shows 25-49%; 50-74%; or 75-100% viability to cells)","+++ (+, ++, and +++ mean the compound respectively shows 25-49%; 50-74%; or 75-100% viability to cells)",< 24%,,< 24%,< 24%

# More lines, main results first:
inhibition at 10 µM (h-cGAS),inhibition at 10 µM (m-cGAS),inhibition at 1 µM (h-cGAS),inhibition at 1 µM (m-cGAS),Structure (SMILES),Cell viability 10 μM (THP1 cells),Cell viability 30 μM (THP1 cells),inhibition at 10 µM (IFNB),inhibition at 30 µM (IFNB),inhibition at 10 µM (NFkB-SEAP),inhibition at 30 µM (NFkB-SEAP)
25 to 49%,75 to 100%,,25 to 49%,Cn1cc(-c2cc(Cl)c(Cl)c3sc4c(c23)CCN(C(=O)CO)C4)cn1 [Compound 62],"+++ (+, ++, and +++ mean the compound respectively shows 25-49%; 50-74%; or 75-100% viability to cells)",,50 to 74%,,< 24%,
50 to 74%,75 to 100%,0 to 24%,,CNc1ccc(-c2cc(Cl)c(Cl)c3sc4c(c23)CCN(C(=O)CN)C4)cn1 [Compound 76],"+++ (+, ++, and +++ mean the compound respectively shows 25-49%; 50-74%; or 75-100% viability to cells)","+++ (+, ++, and +++ mean the compound respectively shows 25-49%; 50-74%; or 75-100% viability to cells)",75 to 100%,75 to 100%,< 24%,75 to 100%
50 to 74%,50 to 74%,25 to 49%,0 to 24%,Cc1csc(-c2cc(Cl)c(Cl)c3sc4c(c23)CCN(C(=O)CN)C4)n1 [Compound 91],"++ (+, ++, and +++ mean the compound respectively shows 25-49%; 50-74%; or 75-100% viability to cells)","− (Cell viability <24%, in THP1 cells is expressed as “−”)",50 to 74%,,25 to 49%,
